Measurements taken from patent US5830910A (priority 1995, dated 1998).
“Also recorded” adds a separate entry of the source.

Tested on: actin stress fibers in astrocytes
Assay: phalloidin staining of actin stress fibers, astrocytes
Format: cell-based, rat
Conditions: 10-1000 nM (FIG. 4A: 100 nM), 3 h
Description: Hippocampal cells were exposed to cytochalasin D and then fixed for 30 min in 4% paraformaldehyde/phosphate-buffered saline. Cell membranes were permeabilized by incubating for 5 min in a solution of 0.2% Triton X-100 in phosphate-buffered saline. Cells were then incubated for 30 min in PBS containing 0.005 U/ml fluorescein-phalloidin (Molecular Probes). Cells were rinsed in water and mounted in Vectashield antifade solution (Vector Laboratories) . Fluorescence images were acquired using a Sarastro 2000 confocal laser scanning microscope with a 60x oil-immersion objective. All images were acquired using identical settings for excitation intensity and detector gain.
FIG. 4. (A) Micrographs are confocal laser scanning microscope images of cultured hippocampal cells stained with fluorescein-labeled phalloidin. Cells were exposed for 3 h to either vehicle (control; left) or 100 nM cytochalasin D (right) prior to staining with phalloidin. The top micrographs show several neurons (arrowheads point to neuronal cell bodies); note reduction in phalloidin fluorescence in cytochalasin-treatedneurons.

## C=C1[C@@H](C)[C@H]2[C@H](Cc3ccccc3)NC(=O)[C@]23[C@H](OC(C)=O)/C=C/[C@@](C)(O)C(=O)[C@@H](C)C/C=C/[C@H]3[C@@H]1O [Cytochalasin D, cytochalasin D]
  actin stress fibers in astrocytes: loss of actin stress fibers in astrocytes; also recorded: loss of stress fibers and cell rounding
